Measured values reported in patent US8470845B2, “Analgesic and methods of treating pain” (Toray Industries, Inc., priority 2004, dated 2013).

Tests used:
male ddY mouse [1] = experiment: Analgesic activity test by mouse acetic acid writhing method; assay type: in vivo; conditions: subcutaneous, 15 minutes before i.p. 0.6% acetic acid; dosage to halve the number of writhing response
Procedure: To each male ddY mouse, each test compound or the vehicle was subcutaneously administered in an administration volume of 0.1 mL/10 g body weight. Fifteen minutes later, 0.1 mL/10 g body weight of aqueous 0.6% (v/v) acetic acid solution was intraperitoneally administered. From 10 minutes after the administration of the acetic acid solution, the number of writhing response (i.e., the behavior to bend the body backward and/or twist the body) during 10 minutes was counted, and the analgesic activity was evaluated based on the number of writhing response. […] 10% Aqueous dimethylsulfoxide (DMSO) was used as a vehicle for test compounds 1, 2, 3, 4, 5, 6, 7, 8, 9, 10, 11, 12, 13, 14, 15, 16, 17, 18, 19, 20, 21 and 22. 0.1% Citric acid/aqueous 5% xylitol was used as a vehicle for test compounds 10f.

[2] = test system: female Sprague-Dayley rats; experiment: Activity to relieve cystalgia caused by hyperextension of bladder, myoelectric activity of external oblique abdominal muscle as index; assay type: in vivo, rat; conditions: iv; for Rate of Inhibition of Myoelectric Activity (Number of Spikes) of External Oblique Abdominal Muscle (vs. before administration, %): anesthetized rats, mean ± standard error
Procedure: The activity of Compound 10f to relieve cystalgia was evaluated using the myoelectric activity of external oblique abdominal muscle in hyperextension of bladder of anesthetized rats as an index of the cystalgia. In the experiments, 14 to 15-week old female Sprague-Dayley rats (CLEA Japan, Inc.) weighing 300 to 360 g were used.
Under halothane (2.5-4%) anesthesia, a polyethylene catheter (PE-50) for cystometry was inserted into the bladder transurethrally. Further, a polyethylene catheter (PE-100) for filling physiological saline was inserted into the bladder from the apex of bladder dome. […] A catheter for drug administration was indwelled in the femoral vein. The skin in the lateral ventral part was incised and a bipolar electrode for electromyographic measurement was inserted into the external oblique abdominal muscle and indwelled therein. A reservoir preliminarily filled with physiological saline was connected to the catheter indwelled in the bladder and held at a prescribed height to extend the bladder. The extension stimulus was continued for 20 seconds. In cases where the stimulation is repeatedly given, the interval between stimulation was 3 minutes. A bipolar electrode (needle electrode for electroencephalography, NIHON KOHDEN) was connected to an electromyograph amplifier (EMG100C, Biopac Systems), and a high cut filter (5 kHz) and low cut filter (100 Hz) were applied. Thereafter, the signals were taken into an AD converter (MP-150WSW, Biopac Systems) and into a computer at 1 kHz, and the myoelectric activity was recorded using the special software (AcqKnowledge 3.8.1, Biopac Systems). The intravesical pressure was measured using a pressure transducer (AP641G, NIHON KOHDEN) and a general purpose amplifier (DA100C, Biopac Systems). The halothane level was adjusted such that a stable myoelectric activity was obtained by extension at a pressure of 50 cmH2O, and then the drug was intravenously administered. Thereafter, hyperextension of bladder was repeated for at least 20 minutes.
The drug was dissolved in aqueous 5% xylitol-0.02% citric acid solution, and the administration volume was 0.5 mL/kg. The mean of the number of spikes during the twice hyperextension of bladder immediately before the drug administration was defined as the value before drug administration. Taking the value before the drug administration as 100%, the change in the number of spikes after administration of the drug was normalized. The mean of the change in the number of spikes by the consecutive three times hyperextension carried out immediately before or after 15-minutes time point from the drug administration was calculated, and the drug effect was analyzed by Williams test.

male ddY mouse [3] = conditions: literature, Pain. Vol 50, 223-229 (1992); cited from earlier work

SMILES | ED50 (male ddY mouse [1]) | Rate of Inhibition of Myoelectric Activity (Number of Spikes) of External Oblique Abdominal Muscle (vs. before administration, %) ([2]; 0.003 mg/kg) | Rate of Inhibition of Myoelectric Activity (Number of Spikes) of External Oblique Abdominal Muscle (vs. before administration, %) ([2]; 0.01 mg/kg) | Rate of Inhibition of Myoelectric Activity (Number of Spikes) of External Oblique Abdominal Muscle (vs. before administration, %) ([2]; 0.03 mg/kg) | inhibition of the myoelectric activity (in words) ([2]; 0.003-0.03 mg/kg) | minimum effective dose ([2]; inhibition of myoelectric activity) | effect on pain in PGF2α-induced allodynia model (in words) (male ddY mouse [3])
O=C1c2ccccc2C(=O)N1[C@@H]1CC[C@@]2(O)[C@H]3Cc4ccc(O)c5c4[C@@]2(CCN3CC2CC2)[C@H]1O5 [Compound 10f, N-(17-cyclopropylmethyl-4,5α-epoxy-3,14-dihydroxy-morphinan-6β-yl)-phthalimide] | 0.037 mg/kg | 5.9 ± 11.5% | 42.4 ± 21.1 % | 64.3 ± 17.2 % | dose-dependently and significantly inhibited | 0.01 mg/kg | 
CN1CC[C@]23c4c5ccc(O)c4O[C@H]2[C@@H](O)C=C[C@H]3[C@H]1C5 [morphine] |  |  |  |  |  |  | ineffective
